Laboratory results from patent US8377986B2, “Amino acid derivatives” (Proximagen Ltd., priority 2007, dated 2013).

Test: Pharmacokinetic analysis: apparent half-life of L-Dopa in rat plasma after dosing prodrug co-dosed with Benserazide
Assay type: in vivo
Conditions: male Wistar rats, L-Dopa generated from prodrug
Procedure: The compound of the invention (I) and comparison compounds (II-VII) were tested in an assay which measures parameters relevant to the pharmacokinetic profile of the test compound. The assay measured the length of time L-dopa remained in the blood of test animals Naïve male Wistar rats (bodyweight=250-500 g) were used for the pharmacokinetic studies. Animals were fasted overnight. The compound of interest was dissolved in 0.9% saline and co-dosed with Benserazide (10 mg/kg) at a molecular weight equivalent dose to 12.5 mg/kg L-Dopa. Blood samples were taken via a butterfly needle located into the lateral tail vein and collected into sample tubes containing heparin as the anti-coagulant. Blood samples were centrifuged at 5000 rpm for 10 minutes; the supernatant plasma was removed and stored at −80° C. Stock solutions of 10 mM L-Dopa and Warfarin were prepared in 20% TFA, 10 mM sodium meta bisulphite and DMSO, respectively. […] Quantification of L-Dopa and Warfarin was achieved by monitoring the transitions of m/z=198.075/152.1 and […], respectively. The apparent half-life of the L-Dopa generated from the prodrugs was calculated from the terminal plasma samples using non compartment models of WinNonLin (Pharsight California USA) with no weighting.

## COC(=O)[C@@H](N)Cc1ccc(OC(=O)CC(C)(C)C)c(OC(=O)CC(C)(C)C)c1.Cl [I, (S)-2-[3,4-Bis-(3,3-dimethyl-butyryloxy)-phenyl]-1-methoxycarbonyl-ethyl-ammonium chloride]
  apparent half-life compared with structurally analogous comparison compounds: significantly greater than the structurally analogous comparison compounds
